Assay results reported in US20210161976A1, “BACTERIA ENGINEERED TO TREAT DISEASES THAT BENEFIT FROM REDUCED GUT INFLAMMATION AND/OR TIGHTENED GUT MUCOSAL BARRIER” (Synlogic Operating Company, Inc., priority 2016, published 2021).
Like-named read-outs stand apart in the source and are kept apart here. One block for each molecule: values may come before it.

How the values were obtained:
STAT3 = STAT3 activation in Colo205 cells by IL-22 containing supernatants; assay type: cell-based; details: average of 5 experiments
Method: To assess the biological activity of IL-22 produced by SYN3001 (IL-22 secreting strain), titrations of SYN3001 and SYN3000 (DOM mutant, non IL-22 secreting negative control strain) supernatants (starting at 150 ng/mL and titrated in 1:3 dilutions) were added to Colo205 cells and the activation of STAT3 was assessed. […] In contrast, SYN3000 had no effect on STAT3 activity.

IL-22 = target: T1, IL-22 (Homo sapiens, UniProt Q9GZX6); assay: Anti-IL-22 neutralizing antibody inhibition of STAT3 activation in Colo205 cells; assay type: cell-based; details: IC50 of anti-IL-22 neutralizing antibody against STAT3 activation by the listed IL-22 source (3 ng/mL)
T1 construct: IL-22 fused to a cleavable PhoA-secretion tag to mediate Sec-dependent secretion into the periplasm; PhoA secretion tag (21 amino acids) (N, cleaved yes); made in house; filtered culture supernatant
T1 sequence (Q9GZX6 34-179): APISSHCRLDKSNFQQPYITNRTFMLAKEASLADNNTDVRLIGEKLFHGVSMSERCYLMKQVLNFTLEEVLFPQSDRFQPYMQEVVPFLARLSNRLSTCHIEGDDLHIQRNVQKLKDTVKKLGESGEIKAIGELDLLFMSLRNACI
Method: To verify that the STAT3 activation elicited by supernatants from SYN3001 was indeed due to IL-22 signaling, Colo205 cells were stimulated with IL-22 supernatants derived from SYN3001 at 3 ng/mL in the presence of increasing concentrations of an anti-IL-22 neutralizing antibody. rLI-22 in the absence of the neutralizing antibody served as a positive control.

[1] = system: LPS-induced IFNγ secretion; assay: LPS-induction of IFNγ cell-based assay in human PBMCs (ELISA)
Method: To assess the activity of the acetate-producing strain SYN2001 in vitro, we employed the LPS-induction of IFNγ cell-based assay. Frozen normal human PBMCs from two independent donors (Lot #'s A4956 and A4924) were plated in triplicate at 1×10^6 cells/mL in 96-well plates in complete media. The cells were then incubated for 15 minutes with media containing either a dilution series of synthetic acetate (40 mM-0.08 Mm), SYN2001 supernatant (30 mM-0.03 mM acetate concentrations based on LC-MS determination) or untreated (negative control). After the 15-minute incubation period, complete media containing LPS was added to the cells to a final concentration of 100 ng/mL and the cells were further incubated overnight under these conditions. The following day supernatants were harvested from each of the different conditions and the IFNγ levels assessed by ELISA. […] We noted that the absolute levels of IFNγ production in the SYN2001 experiments was higher than in the purified acetate experiments, likely due to residual additional LPS in the supernatants from the bacterially-derived acetate. Nonetheless, the IC50s observed for the two acetate sources were very similar.

[2] = system: HT-29 colon adenocarcinoma cells; assay: Cell viability assay in HT-29 cells (trypan blue, Cellometer K2); details: 4 days, data not shown
[3] = system: Ptet-GFP reporter construct; assay: ATC-inducible Ptet-GFP reporter construct, fluorescence in plate reader; details: two-fold decreased inducer, 96-well, relative florescence units
[4] = system: gut motility and inflammation; details: rats, early phase of acute colitis; cited from earlier work
PXR = target: T2, PXR (Mus musculus, UniProt O54915); details: in vivo; cited from earlier work
T2 sequence (O54915 1-431): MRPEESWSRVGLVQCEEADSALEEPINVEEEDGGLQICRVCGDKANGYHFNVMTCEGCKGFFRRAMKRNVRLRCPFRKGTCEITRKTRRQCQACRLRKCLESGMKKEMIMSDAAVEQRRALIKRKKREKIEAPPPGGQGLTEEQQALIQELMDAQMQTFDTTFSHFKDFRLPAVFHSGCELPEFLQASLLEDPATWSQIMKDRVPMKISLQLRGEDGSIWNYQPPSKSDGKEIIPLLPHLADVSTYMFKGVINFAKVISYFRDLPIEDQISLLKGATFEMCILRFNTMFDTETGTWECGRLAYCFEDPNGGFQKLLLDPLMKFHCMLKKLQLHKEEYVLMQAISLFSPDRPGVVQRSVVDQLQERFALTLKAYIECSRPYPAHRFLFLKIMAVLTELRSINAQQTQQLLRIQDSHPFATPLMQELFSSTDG

[5] = system: PnsrR-GFP reporter construct; assay: Nitric oxide inducible PnsrR-GFP reporter construct, fluorescence in plate reader; assay type: cell-based, E. coli Nissle; details: DETA-NO, two-fold decreased inducer, 96-well, relative florescence units
neutrophils = details: cited from earlier work

EC50 (STAT3): 1.56 ng/mL | IC50 (IL-22): 3.70 ng/mL
Molecule: rIL-22

Molecule: CC(=O)O [Acetate]
EC50 ([1]; human PBMC, donor 1, 3 experiments in triplicate, LPS 100 ng/mL, read-out: EC50 on LPS-induced IFNγ secretion, Donor 1): 3120 µM | EC50 ([1]; human PBMC, donor 2, 3 experiments in triplicate, LPS 100 ng/mL, read-out: EC50 on LPS-induced IFNγ secretion, Donor 2): 2180 µM | LPS-induced secretion of IFNγ ([1]; primary human PBMC, two donors, FIG. 26G/26H): dose-dependent decrease

Molecule: CCCC(=O)O [synthetic butyrate, butyrate]
effect on cell viability [2]: did not have any appreciable effect

Molecule: anhydrous tetracycline [ATC]
induction of GFP expression [3]: able to induce the expression of GFP

Molecule: O=C(O)c1cc(=O)c2ccccc2[nH]1 [kynurenic acid]
gut motility and inflammation [4]: decreased gut motility and inflammation

Molecule: O=C(O)CCc1c[nH]c2ccccc12 [indole 3-propionic acid (IPA), indole 3-propionic acid]
PXR ligand (PXR): ligand for PXR

Molecule: NCCN(CCN)/[N+]([O-])=N/O [NO, diethylenetriamine-nitric oxide adduct]
induction of GFP expression [5]: able to induce the expression of GFP

Molecule: CC(=O)O [Acetate (synthetic)]
EC50 ([1]; decrease of LPS-induced IFNγ, human PBMCs donor 1, LPS 100 ng/mL, acetate concentration, read-out: EC50-donor 1): 3120 µM | EC50 ([1]; decrease of LPS-induced IFNγ, human PBMCs donor 2, LPS 100 ng/mL, acetate concentration, read-out: EC50-donor 2): 2180 µM

Molecule: Nc1ccccc1C(=O)CC(N)C(=O)O (stereo not shown) [Kynurenine]
apoptosis in neutrophils (neutrophils): induce apoptosis
